These results are taken from publication PMC6773865, “Functional recruitment of dynamin requires multimeric interactions for efficient endocytosis” (Nature Communications, 2019).

The test system of this experiment is membrane capacitance of NIH 3T3 cells (balance between exocytosis and endocytosis). Description: Cell capacitance in whole cell patch-clamp. Format: cell-based. The note with it: 10th minute over 1st minute of whole cell recording; peptides 1 mM; paired t-test. Here is the method: Cells were patched with pipettes made of borosilicate glass (GC150F, Harvard Apparatus) and pulled with a vertical Narishige puller (World Precision Instruments). The solution contained (in mM): 130–140 KCH3SO3, 1 EGTA, 0.1 CaCl2, 10–20 HEPES, 4 ATP (sodium or magnesium salt), 0.4 Na-GTP (or GTPγS when indicated), 5 phosphocreatine and 3 sodium ascorbate. pH was adjusted to 7.2 using KOH and osmolarity to ~300 mOsm L^−1. Sodium ascorbate was omitted in earlier recordings but was added for better stability. Chloride ions either came from 2 mM KCl, 10 mM NaCl or 4 mM MgCl2 (when Na-ATP was used) in various trials. All salts were purchased from Sigma-Aldrich. Cells were voltage-clamped at −60 mV with an EPC10 amplifier (HEKA) with series resistance and cell capacitance estimation every 4 s in the whole cell mode. The digital triggers of the amplifier were used to drive the electrovalves for pH changes. Cell viability and dialysis efficiency were made sure of by monitoring […] throughout the recording using the Patchmaster software (HEKA): series resistance should remain below 10 MΩ and holding current should remain above −100 pA. If either of these criteria was not respected (except holding current for recordings in GTPγS, see Supplementary Fig. 3D), the recording was not considered for analysis. On a given experimental day at least one control recording (i.e. without any peptide) was performed to ensure recording quality. All these recordings were pooled in the ‘control’ condition (n = 63 on 42 experimental days). […]
Supplementary Figure 5: Characteristics of the whole cell recordings in the different conditions of this study. A, Scheme of the equivalent electrical circuit of a cell recorded in the whole cell configuration. […]
This is likely due to the activation of GTP dependent trimeric G proteins which activate various channels in the presence of GTPγS, thereby increasing the holding current. […] F, Ratios of Cm recorded during the 10 th minute of recording over Cm recorded during the 1st minute. […]
Background: In patch-clamp work, channel activity is measured electrically.

As for `CC(=O)N[C@@H](Cc1ccc(O)cc1)C(=O)N[C@@H](CCCCn1cc(CCC(=O)NCCCOCCOCCOCCCNC(=O)CCC(=O)NCCCOCCOCCOCCCNC(=O)CCC(=O)NCCCOCCOCCOCCCNC(=O)CCC(=O)N2CCC[C@H]2C(=O)N2CCC[C@H]2C(=O)N2CCC[C@H]2C(=O)N[C@@H](CCC(N)=O)C(=O)N[C@H](C(=O)N2CCC[C@H]2C(=O)N[C@@H](CO)C(=O)N[C@@H](CCCNC(=N)N)C(=O)N2CCC[C@H]2C(=O)N[C@@H](CC(N)=O)C(=O)N[C@@H](CCCNC(=N)N)C(=O)N[C@@H](C)C(=O)N2CCC[C@H]2C(=O)N2CCC[C@H]2C(=O)NCC(N)=O)C(C)C)nn1)C(=O)NCCCOCCOCCOCCCNC(=O)CCC(=O)NCCCOCCOCCOCCCNC(=O)CCC(=O)NCCCOCCOCCOCCCNC(=O)CCC(=O)N1CCC[C@H]1C(=O)N1CCC[C@H]1C(=O)N1CCC[C@H]1C(=O)N[C@@H](CCC(N)=O)C(=O)N[C@H](C(=O)N1CCC[C@H]1C(=O)N[C@@H](CO)C(=O)N[C@@H](CCCNC(=N)N)C(=O)N1CCC[C@H]1C(=O)N[C@@H](CC(N)=O)C(=O)N[C@@H](CCCNC(=N)N)C(=O)N[C@@H](C)C(=O)N1CCC[C@H]1C(=O)N1CCC[C@H]1C(=O)NCC(N)=O)C(C)C` [dD15-N], the “change of Cm, Cm(10')/Cm(1')” value is “no significant decrease in Cm”.
